According to patent publication US20080311578A1, “System for screening eukaryotic membrane proteins” (Hydra Biosciences, Inc., priority 2004, published 2008):

Tests used:
Assay type in all cases: cell-based
[1] = molecular target: T1, human CatSper 1 calcium channel (Homo sapiens, UniProt Q8NEC5); assay: aequorin calcium flux assay in bacterial cells expressing hCatSper1; conditions: CatSper1 expressed in bacterial cells, FIG. 5
T1 construct: expressed in transfected cells; host or cells: E. coli (Rosetta-Gami B (DE3) pLysS, Novagen), modified pET dual-T7 vector, co-expressed with apo-aequorin
T1 sequence (Q8NEC5 1-780): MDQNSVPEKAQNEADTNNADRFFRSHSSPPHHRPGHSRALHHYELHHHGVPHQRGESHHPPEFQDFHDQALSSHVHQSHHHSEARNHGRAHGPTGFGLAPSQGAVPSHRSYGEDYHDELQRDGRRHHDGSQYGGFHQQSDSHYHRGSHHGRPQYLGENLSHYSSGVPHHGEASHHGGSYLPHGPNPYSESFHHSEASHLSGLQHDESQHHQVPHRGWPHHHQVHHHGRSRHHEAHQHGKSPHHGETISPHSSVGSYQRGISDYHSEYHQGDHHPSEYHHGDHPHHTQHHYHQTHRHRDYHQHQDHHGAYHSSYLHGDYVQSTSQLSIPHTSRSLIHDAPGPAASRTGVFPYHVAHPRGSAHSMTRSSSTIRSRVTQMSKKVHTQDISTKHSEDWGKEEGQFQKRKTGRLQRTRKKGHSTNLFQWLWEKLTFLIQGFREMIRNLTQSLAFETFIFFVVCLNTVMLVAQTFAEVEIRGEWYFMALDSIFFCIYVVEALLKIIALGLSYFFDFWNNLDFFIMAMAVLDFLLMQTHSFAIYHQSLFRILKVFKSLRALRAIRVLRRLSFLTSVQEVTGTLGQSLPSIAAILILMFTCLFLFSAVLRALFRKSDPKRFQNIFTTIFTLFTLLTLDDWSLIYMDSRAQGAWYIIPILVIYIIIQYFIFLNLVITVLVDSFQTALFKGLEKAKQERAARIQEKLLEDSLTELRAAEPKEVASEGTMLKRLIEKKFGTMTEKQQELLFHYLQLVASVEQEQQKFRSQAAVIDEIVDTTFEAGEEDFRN
Procedure: (§1) 1) 0.5-2 mL of an overnight bacteria (already transformed with a nucleic acid construct or composition encoding a eukaryotic Calcium ion channel and an aequorin marker) culture is innoculated into 25 mL of LB-Amp;
(§2) 2) Bacteria are grown to an OD (optical density) of 0.6;
(§3) 3) 1 mM IPTG added for 2-hour induction;
(§4) 4) Bacteria are spun down, resuspended in ½ volume of nominally divalent free ringers and loaded with coelenterazine;
(§5) 5) Bacteria are rinsed and loaded into 96 well plate ([…]);
(§6) 6) Plate is put in a plate reader, e.g., a Wallac Victor 3;
(§7) 7) Plate is shaken for 2 sec then rested for 5 seconds;
(§8) 8) 10 reads are taken 1 second apart;
(§9) 9) 5 μL of 20 mM CaCl2 is injected;
(§10) 10) 50 reads are taken 1 second apart;
(§11) Note: When a blocker is present, it is added before the plate is put in the reader.
(§12) A further indicator of the functional activity of the ion channel is whether its activity is sensitive to treatment with agonistic or inhibitory agents. FIG. 5 summarizes experiments conducted to address this issue. […] Furthermore, the calcium-flux mediating activity of the channels is inhibited following addition of the calcium channel inhibitor, lanthanum.

[2] = molecular target: T2, rat TrpV1 calcium channel (Rattus norvegicus, UniProt O35433); assay: aequorin calcium flux assay in bacterial cells expressing rat TrpV1
T2 construct: expressed in transfected cells; host or cells: E. coli (Rosetta-Gami B (DE3) pLysS, Novagen), dual-T7 expression plasmid, co-expressed with aequorin
Procedure: as §1, §2, §3, §4, §5, §6, §7, §8, §9, §10, §11, §12
(§13) The Trp channel blocker ruthenium red inhibits TrpV1 mediated calcium flux in bacterial cells or CHO cells.

rat TrpV1 = molecular target: T3, rat TrpV1 (Rattus norvegicus, UniProt O35433); assay: TrpV1 mediated calcium flux in CHO cells; conditions: FIG. 8
T3 construct: expressed in transfected cells; host or cells: CHO cells
Excerpt: as §13

T2 sequence (O35433 whole entry): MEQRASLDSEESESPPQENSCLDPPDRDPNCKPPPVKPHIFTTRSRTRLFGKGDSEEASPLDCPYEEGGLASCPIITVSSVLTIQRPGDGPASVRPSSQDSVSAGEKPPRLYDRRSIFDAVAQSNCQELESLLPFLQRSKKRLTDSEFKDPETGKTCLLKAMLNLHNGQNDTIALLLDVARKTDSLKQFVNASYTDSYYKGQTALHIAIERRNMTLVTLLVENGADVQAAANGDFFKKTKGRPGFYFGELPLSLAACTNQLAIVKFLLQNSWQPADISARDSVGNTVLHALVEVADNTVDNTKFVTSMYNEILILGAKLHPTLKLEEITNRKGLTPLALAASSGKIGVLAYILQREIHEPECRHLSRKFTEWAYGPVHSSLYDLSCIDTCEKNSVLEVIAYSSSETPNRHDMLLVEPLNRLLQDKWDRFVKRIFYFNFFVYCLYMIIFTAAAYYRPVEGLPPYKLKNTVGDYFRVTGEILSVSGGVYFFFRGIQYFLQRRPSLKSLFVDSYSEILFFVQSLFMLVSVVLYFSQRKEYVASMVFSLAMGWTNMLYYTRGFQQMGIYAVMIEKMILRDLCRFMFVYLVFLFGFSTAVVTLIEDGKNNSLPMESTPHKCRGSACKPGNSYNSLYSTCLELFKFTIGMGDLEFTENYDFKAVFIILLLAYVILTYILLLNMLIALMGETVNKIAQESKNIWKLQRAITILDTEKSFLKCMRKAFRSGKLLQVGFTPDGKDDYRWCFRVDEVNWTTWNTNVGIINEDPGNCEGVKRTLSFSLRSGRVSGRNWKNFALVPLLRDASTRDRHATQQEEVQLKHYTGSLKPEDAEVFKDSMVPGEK
T3 sequence (O35433 whole entry): as above

Row | Structure (SMILES) | inhibition of calcium-flux mediating activity of the channel [1] | inhibition of calcium-flux mediating activity of the channel ([2]; TrpV1 expressed in bacterial cells, FIG. 5) | potency (IC50) in bacterial cells compared with CHO cells ([2]; bacterial cells vs CHO cells, FIG. 8) | inhibition of TrpV1 mediated calcium flux ([2]; bacterial cells, FIG. 8) | calculated Hill slope values, CHO cells vs bacterial cells ([2]; comparison between the CHO cells and the bacterial cells, FIG. 8) | inhibition of TrpV1 mediated calcium flux (rat TrpV1)
1 | [La] [lanthanum] | inhibited in a dose dependent fashion | inhibited in a dose dependent fashion | – | – | – | –
2 | N.N.N.N.N.N.N.N.N.N.N.N.N.N.[Cl-].[Cl-].[Cl-].[Cl-].[Cl-].[Cl-].[O-2].[O-2].[Ru+3].[Ru+3].[Ru+4] [ruthenium red] | – | – | somewhat less potent | inhibits | not significantly different | inhibits
